Here are results for one compound from patent publication US20200071361A1, “ENGINEERED ANTIMICROBIAL AMPHIPHILIC PEPTIDES AND METHODS OF USE” (priority 2017, published 2020).

Assay [1] relates to Acinetobacter baumannii ATCC 19606 (non-MDR). Kind of assay: Broth microdilution MIC (Table 2). Type of assay: cell-based. To be noted: ATCC19606, read-out: MIC. How it is done: (§1) Each peptide was formulated in PBS buffer prior to testing. Peptides of SEQ ID NO:5 and SEQ ID NO:8 were brought up in 100% DMSO with 0.002% polysorbate-80 at 1.28 mg/mL (40× the highest final test concentration of 32 mcg/mL). Final test concentration of DMSO was 2.5% in the assay at the first dilution for those two compounds.
(§2) Mueller Hinton II broth (MHB II; BD; Lot Nos. 6258541 and 7143896) was used for MIC testing of aerobic organisms. 0.002% polysorbate 80 (P80) was added to the test medium.
(§3) MIC values were determined using a broth microdilution procedure described by CLSI (1, 3). Automated liquid handlers (Multidrop 384, Labsystems, Helsinki, Finland; Biomek 2000 and Biomek FX, Beckman Coulter, Fullerton Calif.) were used to conduct serial dilutions and liquid transfers.
(§4) To prepare the drug mother plates, which would provide the serial peptide dilutions for the replicate daughter plates, the wells of columns 2-12 of standard 96-well microdilution plates (Costar 3795) were filled with 150 μl of the designated diluent for each row of peptide. The test articles and comparator compounds (300 μl at 40× the highest concentration to be tested) were dispensed into the appropriate wells in column 1. The Biomek 2000 was then used to make 2-fold serial dilutions in the mother plates from column 1 through column 11. The wells of Column 12 contained no drug and served as the organism growth control wells for the assay.
(§5) The daughter plates were loaded with 185 μL per well of MHB II using the Multidrop 384. The daughter plates were completed on the Biomek FX instrument which transferred 5 uL of peptide solution from each well of a mother plate to the corresponding well of each daughter plate in a single step. A standardized inoculum of each test organism was prepared per CLSI methods. The inoculum for each organism was dispensed into sterile reservoirs divided by length (Beckman Coulter), and the Biomek 2000 was used to inoculate the plates. Daughter plates were placed on the Biomek 2000 work surface in reverse orientation so that inoculation took place from low to high drug concentration. The plates were then inoculated with 10 μL of the inoculum resulting in a final cell density of approximately 5×10^5 CFU/mL, per well.
(§6) Plates were stacked 3-4 high, covered with a lid on the top plate, placed in plastic bags, and incubated at 35° C. for 16 to 20 hrs. Following incubation, the microplates were removed from the incubator and viewed from the bottom using a plate viewer. […] The MIC was read and recorded as the lowest concentration of peptide that inhibited visible growth of the organism.
Background: Dilution methods test growth across graded concentrations, often in twofold steps.

For assay [2], the system named is Acinetobacter baumannii ATCC BAA-1797 (MDR). Kind of assay: Broth microdilution MIC (Table 2). Type of assay: cell-based. To be noted: ATCCBAA1797, read-out: MIC. How it is done: as §1, §2, §3, §4, §5, §6
In assay [3] the test system is Enterococcus faecalis ATCC 29212 (VSE; QC). Kind of assay: Broth microdilution MIC (Table 2). Type of assay: cell-based. To be noted: ATCC29212, read-out: MIC. The protocol:
as §1, §2, §3, §4, §5, §6

Assay [4] deals with Enterococcus faecium ATCC 51559 (VRE). Kind of assay: Broth microdilution MIC (Table 2). Type of assay: cell-based. To be noted: read-out: MIC. The protocol:
as §1, §2, §3, §4, §5, §6

The subject of assay [5] is Acinetobacter spp. isolates (n = 104). Kind of assay: Broth microdilution MIC, clinical isolate panel. Type of assay: cell-based. The note with it: Acinetobacter spp. (n = 104).
Assay [6] has as its system Escherichia coli isolates (n = 101). Kind of assay: Broth microdilution MIC, clinical isolate panel. The note with it: Escherichia coli (n = 101). Type of assay: cell-based.
Assay [7] concerns Klebsiella pneumoniae isolates (n = 101). Kind of assay: Broth microdilution MIC, clinical isolate panel. Type of assay: cell-based. To be noted: Klebsiella pneumoniae (n = 101).
For assay [8], the system named is Pseudomonas aeruginosa isolates (n = 109). Kind of assay: Broth microdilution MIC, clinical isolate panel. Type of assay: cell-based. To be noted: Pseudomonas aeruginosa.
The test system of assay [9] is Staphylococcus aureus isolates (n = 104). Kind of assay: Broth microdilution MIC, clinical isolate panel. Type of assay: cell-based. To be noted: Staphylococcus aureus (n = 104), all methicillin-resistant.
In assay [10] the test system is Enterobacter spp. isolates (n = 102). Kind of assay: Broth microdilution MIC, clinical isolate panel. Type of assay: cell-based, Enterobacter aerogenes and E. cloacae. The note with it: Enterobacter spp. (n = 102). How it is done: Comparator antibiotics were supplied by Micromyx, and stock solutions were prepared on the first day of testing using solvents recommended by CLSI (1). Stock solutions of all compounds were made at 40× the final testing concentration and stored at −80° C. prior to testing. Information regarding compound source, catalog and lot number, testing concentrations and drug diluent for the comparators and test agent are detailed below in Table 3.
The test organisms evaluated in this study consisted of clinical isolates from the Micromyx Repository and reference isolates from the American Type Culture Collection (ATCC; Manassas, Va.). The clinical isolates were obtained from USA hospitals. Upon initial receipt at Micromyx, the organisms were sub-cultured onto an appropriate agar medium. Following incubation, colonies were harvested from these plates and cell suspensions prepared and frozen at −80° C. with a cryoprotectant. Prior to testing, the isolates were streaked from frozen vials onto Trypticase Soy Agar with 5% sheep blood (Becton Dickenson [BD]; Sparks, Md.; Lot Nos. 7173618, 7166759, 7208688, 72144895, 7228505 and Remel Lenexa, Kans. Lot No. 212574). Plates were incubated at 35° C. overnight.
Mueller Hinton II broth (MHB II; BD; Lot Nos. 6258541 and 7143896) was used for MIC testing of aerobic organisms.
as §3
as §4, with “drug” for “peptide”, “drug.” for “peptide.”
The daughter plates were loaded with 185 μL per well of MHB II using the Multidrop 384. The daughter plates were completed on the Biomek FX instrument which transferred 5 µL of drug solution from each well of a mother plate to the corresponding well of each daughter plate in a single step. […]
Plates were stacked 3-4 high, covered with a lid on the top plate, placed in plastic bags, and incubated at 35° C. for 16 to 20 hrs. […] The MIC was read and recorded as the lowest concentration of drug that inhibited visible growth of the organism. […]

Values after ≈ are worked out from the molar mass of the structure shown.

As usually defined, the MIC is the lowest concentration found to suppress growth. Broadly, the MIC50 is the lowest concentration that inhibits either 50% of growth or 50% of the strains tested, depending on the study. High values mean weaker potency, low ones greater potency. Regarding `C[C@H]1COc2c(N3CCN(C)CC3)c(F)cc3c(=O)c(C(=O)O)cn1c23` [Levofloxacin], the minimal inhibitory concentration (MIC) in assay [1] is 0.25 µg/mL (≈ 0.692 µM); in assay [2] it was 0.25 µg/mL (≈ 0.692 µM); in assay [3], 1 µg/mL (≈ 2.77 µM); in [4] it was 16 µg/mL (≈ 44.3 µM); in [8] (read-out: Mode (MIC)), 0.25 µg/mL (≈ 0.692 µM). Further, the MIC50 in assay [5] is 8 µg/mL (≈ 22.1 µM); in assay [6], 4 µg/mL (≈ 11.1 µM); in assay [8] it was 1 µg/mL (≈ 2.77 µM); in [9], 8 µg/mL (≈ 22.1 µM). Further, the “% R (percent of isolates resistant, clinical breakpoints)” value is around 50% in assay [6], “over 60%” in assay [7], “Over 80%” in [9] and 4.9% in assay [10].
